Data reported in paper PMC11696576, “Next generation thiazolyl ketone inhibitors of cytosolic phospholipase A2 α for targeted cancer therapy” (Nature Communications, 2025).
Where “and” joins values, the source holds several entries; their conditions need not be identical. Equal entries are not always repeated. Where two headings read alike, the source gives them in different places.

Test system: panel of 66 cancer cell lines
Assay: cancer cell line screen, proliferation assay (ATPlite, 72 h)
Format: cell-based, human
Conditions: for IC50: Homo sapiens, read-out: IC50; for raw signal, dose-response (Figure S7a): rep1, rep2, listed as AVX420
Excerpt: Targeting specific molecular vulnerabilities in cancer is considered a key approach to reducing the adverse effects of chemotherapy. However, the events that govern the susceptibility to suppression of the cPLA2α in cancer remain largely unexplored. We therefore took the approach of screening the antiproliferative activity of AVX420 in a panel of 66 cancer cell lines (hereafter referred to as the cancer cell line screen or CCLS) to allow us to investigate molecular and genetic vulnerabilities to the drug.
Screening of compound activities in 66 cancer cell lines was carried out at the Netherlands Translation Research Center. Briefly, proliferation assays were performed 72 h after compound addition using ATPlite 1step reagent (Perkin Elmer). IC50s calculated by non-linear regression analysis were used as a measure of compound activity for investigating associations with genetic factors. A complete description of the laboratory and data analysis methods are available in the Supplementary Information file (Supplemental Methods: Cancer Cell Line Screening).
Cancer cell line screening
Cell proliferation assays
All cell lines were from the American Type Culture Collection (ATCC) Manassas, Virginia (US) and maintained under ATCC-recommended protocols and within 9 pas- […]
DMSO at -80°C until one hour before use. Cells exposed within one hour after thaw-ing of the compound stocks. Final compound concentration range in the assay was 10 […]
cated by supplier. Compounds were dissolved in 100 % DMSO and stored at room temperature. Final concentration of the reference compounds in the assay was 3.16x10-5 M to 3.16x10-9 M. The final DMSO concentration during incubation was […]
Cell lines were plated in Advanced RPMI 1640 (Gibco, ref 12633-012) cell culture medium, containing 1% Glutamax solution (Gibco, ref 35050-038), 0.4% Pen Strep solution (Gibco, ref 15140-122) and bovine serum. The cPLA2α inhibitors were tested in 0.5% bovine serum (HyClone, ref SH30072.03) with the exception of769-P, A-204, BT-549, SR, T98G, which were tested in the presence of 1.0% serum and A-704 and LNCaP FGS, which were tested in the in the presence of 10% serum. Reference com-pounds were all tested in the presence of 10% bovine serum.
Cells were dispensed in a 384-well plate, at a concentration of 200 - 3200 cells per well, depending on the cell line, in 45 μL medium. Plated cells were incubated in a humidified atmosphere of 5% CO2 at 37 °C. After 24 hours, 5 μL of compound dilu-tion was added and plates were further incubated for another 72 hours. After 72 hours, 25 μL of ATPlite 1Step™ (PerkinElmer) solution was added to each well, and subse-quently shaken for 2 minutes. After 10 minutes of incubation in the dark, the lumines-cence was recorded on an Envision multimode reader (PerkinElmer).
Cell growth control. The cellular doubling times of all cell lines are calculated from the t = 0 hours and t = 72 hours growth signals of the untreated cells. If the doubling time is out of specification (0.5 – 2.0 times deviating from historic average) the assay […]
IC50s were calculated by non-linear regression using IDBS XLfit 5. The percentage growth after 72h (%-growth) was calculated as follows: 100% x (luminescence t = 72h / luminescence untreated,t=72h). This was fitted to the 10log compound concentration (conc) by a 4-parameter logistics curve: %-growth = bottom + (top – bottom) / (1+ 10(logIC50 – conc)*hill)), where hill is the Hill-coefficient, and bottom and top the asymptotic mini-mum and maximum cell growth that the compound allows in that assay.
All analysis were performed in the statistical software package R and visualized using GraphPad Prism version 10.0 .0

## CCCCCCCOc1ccc(OCC(=O)c2nc(C(=O)OC)cs2)cc1 [GK420]
SJCRH30
  IC50: 16.6 µM
SK-N-AS
  IC50: 14.2 µM
SK-N-FI
  IC50: 20 µM
SNU-C2B
  IC50: 19.3 µM
SR
  IC50: 12.5 µM
SUP-T1, SUP-T1
  IC50: 17.9 µM
SW48, SW48
  IC50: 22.6 µM
SW480, SW480
  IC50: 14.3 µM
SW948, SW948
  IC50: 21.1 µM
SW-620, SW620
  IC50: 20 µM
T98G
  IC50: 42.4 µM
T-24, T24
  IC50: 14.7 µM
TT
  IC50: 27.7 µM
U2OS, U-2 OS
  IC50: 8.01 µM
U-87 MG
  IC50: 20.3 µM
VA-ES-BJ
  IC50: 23 µM
Hs578T, breast
  pIC50: 4,834
J82, urinary_tract
  pIC50: 4,716
Jurkat E6.1, Log10 M -5
  raw signal, dose-response (Figure S7a): 18200 and 21347
Jurkat E6.1, Log10 M -5.5
  raw signal, dose-response (Figure S7a): 21213 and 30520
Jurkat E6.1, Log10 M -6.5
  raw signal, dose-response (Figure S7a): 2114520 and 2235427
Jurkat E6.1, Log10 M -7
  raw signal, dose-response (Figure S7a): 2341173 and 2551267
Jurkat E6.1, Log10 M -7.5
  raw signal, dose-response (Figure S7a): 2392960 and 2321813
Jurkat E6.1, Log10 M -8
  raw signal, dose-response (Figure S7a): 2356933 and 2578573
Jurkat, blood
  pIC50: 6,245
K562, blood
  pIC50: 4,814
K562, Log10 M -4
  raw signal, dose-response (Figure S7a): 74307 and 48600
K562, Log10 M -4.5
  raw signal, dose-response (Figure S7a): 1190933 and 1527307
K562, Log10 M -5
  raw signal, dose-response (Figure S7a): 13304880 and 13536973
K562, Log10 M -5.5
  raw signal, dose-response (Figure S7a): 15252080 and 16813307
KU812, blood
  pIC50: 5,039
KU812, Log10 M -4
  raw signal, dose-response (Figure S7a): 2867 and 5600
KU812, Log10 M -4.5
  raw signal, dose-response (Figure S7a): 66600 and 77573
KU812, Log10 M -5.5
  raw signal, dose-response (Figure S7a): 3841840 and 3310707
KU812, Log10 M -6
  raw signal, dose-response (Figure S7a): 3516360 and 3607827
KU812, Log10 M -6.5
  raw signal, dose-response (Figure S7a): 3576653 and 3459747
KU812, Log10 M -7
  raw signal, dose-response (Figure S7a): 3573240 and 3479493
KU812, Log10 M -7.5
  raw signal, dose-response (Figure S7a): 3396627 and 3395373
KU812, Log10 M -8
  raw signal, dose-response (Figure S7a): 3660107 and 3329680
LoVo, large_intestine
  pIC50: 4,781
MCF7, breast
  pIC50: 4,833
MG63, bone
  pIC50: 4,644
MIAPaCa2, pancreas
  pIC50: 4,884
MOLT-4, Log10 M -4
  raw signal, dose-response (Figure S7a): 6187 and 5813
MOLT-4, Log10 M -5
  raw signal, dose-response (Figure S7a): 64080 and 125733
MOLT-4, Log10 M -5.5
  raw signal, dose-response (Figure S7a): 4862747 and 5232987
MOLT-4, Log10 M -6
  raw signal, dose-response (Figure S7a): 6801747 and 6267067
MOLT-4, Log10 M -6.5
  raw signal, dose-response (Figure S7a): 7366227 and 6477733
MOLT-4, Log10 M -7
  raw signal, dose-response (Figure S7a): 6306707 and 6935720
MOLT-4, Log10 M -7.5
  raw signal, dose-response (Figure S7a): 6661907 and 6660467
MOLT-4, Log10 M -8
  raw signal, dose-response (Figure S7a): 6315747 and 6363187
MeWo, skin
  pIC50: 4,711
NCIH82, lung
  pIC50: 5,315
NCIH460, lung
  pIC50: 4,489
RPMI7951, skin
  pIC50: 4,852
RT4, urinary_tract
  pIC50: 4,477
SHP77, lung
  pIC50: 4,861
SKNAS, peripheral_nervous_system
  pIC50: 4,847
SKNFI, peripheral_nervous_system
  pIC50: 4,698
SR, Log10 M -4
  raw signal, dose-response (Figure S7a): 11267 and 10080
SR, Log10 M -4.5
  raw signal, dose-response (Figure S7a): 14987 and 22200
SR, Log10 M -5
  raw signal, dose-response (Figure S7a): 2171560 and 2105733
SR, Log10 M -5.5
  raw signal, dose-response (Figure S7a): 2501520 and 2976000
SR, Log10 M -6
  raw signal, dose-response (Figure S7a): 2547880 and 3067093
SR, Log10 M -6.5
  raw signal, dose-response (Figure S7a): 2848387 and 3116973
SR, Log10 M -7
  raw signal, dose-response (Figure S7a): 3165427 and 3131507
SR, Log10 M -7.5
  raw signal, dose-response (Figure S7a): 3036893 and 2296373
SR, Log10 M -8
  raw signal, dose-response (Figure S7a): 3222893 and 3197013
SUP-T1, Log10 M -4
  raw signal, dose-response (Figure S7a): 26587 and 37653
SUP-T1, Log10 M -5
  raw signal, dose-response (Figure S7a): 6935960 and 5931427
SUP-T1, Log10 M -5.5
  raw signal, dose-response (Figure S7a): 6473080 and 6695013
SUP-T1, Log10 M -6
  raw signal, dose-response (Figure S7a): 6511467 and 6816760
SUP-T1, Log10 M -6.5
  raw signal, dose-response (Figure S7a): 6737680 and 6611147
SUP-T1, Log10 M -7
  raw signal, dose-response (Figure S7a): 6237733 and 6274507
SUP-T1, Log10 M -7.5
  raw signal, dose-response (Figure S7a): 6362947 and 6848640
SUP-T1, Log10 M -8
  raw signal, dose-response (Figure S7a): 6336067 and 6341827
SUPT1, blood
  pIC50: 4,747
SW48, large_intestine
  pIC50: 4,646
SW480, large_intestine
  pIC50: 4,843
SW620, large_intestine
  pIC50: 4,698
SW948, large_intestine
  pIC50: 4,676
T24, urinary_tract
  pIC50: 4,833
T98G, central_nervous_system
  pIC50: 4,373
TT, thyroid
  pIC50: 4,558
U2OS, bone
  pIC50: 5,097
U87MG, central_nervous_system
  pIC50: 4,692
VAESBJ, soft_tissue
  pIC50: 4,638
